This is an account of results in DBAASP.

By MIC is commonly meant the smallest concentration in the dilution series that meets the test's criterion for growth inhibition.

Converted amounts (≈) assume the structure as drawn. “And” between values parts separate entries of the source, which are not always exact repeats. Equal values may be shown once.

Among the test systems are Escherichia coli BL21; Shigella dysenteriae; Pseudomonas aeruginosa; Bacillus cereus; Bacillus pumilus.
Common to all, as to assay: ≥ marks a high value that may be exact or a test limit, other limits are often not marked, values filed in µg/mL are converted to µM
Assay [1] deals with Pseudomonas aeruginosa PAO1.
Assay [2] deals with Streptococcus pyogenes M1T1 5448.
The subject of assay [3] is Candida albicans ATCC 2002.
Assay [4] has as its system Staphylococcus aureus ATCC 2592.
The subject of assay [5] is Acinetobacter calcoaceticus.
Assay [6] relates to Escherichia coli ATCC 25922.
For assay [7], the system named is Staphylococcus aureus NCTC 8325.
Assay [8] relates to Batrachochytrium dendrobatidis.
Assay [9] relates to Escherichia coli ATCC 25726.
Assay [10] has as its system Staphylococcus aureus ATCC 25923.
In assay [11] the test system is Pseudomonas aeruginosa H1001.
Assay [12] concerns Escherichia coli DSM 1103.
Assay [13] deals with Staphylococcus epidermidis DSM 1798.
The test system of assay [14] is Pseudomonas aeruginosa DSM 1117.
The subject of assay [15] is Staphylococcus aureus DSM 1104.
Assay [16] has as its system Escherichia coli ATCC 8739.
The subject of assay [17] is Acinetobacter baumannii ATCC 17978.
Assay [18] has as its system Staphylococcus aureus HNCMO 112011.

Turning to `CC[C@H](C)[C@H](NC(=O)[C@H](CCCCN)NC(=O)[C@H](C)NC(=O)[C@H](CCCN=C(N)N)NC(=O)[C@H](CCCCN)NC(=O)CNC(=O)[C@H](CCCCN)NC(=O)[C@H](CCC(=O)O)NC(=O)[C@H](CCC(N)=O)NC(=O)[C@@H](NC(=O)[C@@H](NC(=O)[C@H](CCCCN)NC(=O)[C@H](CCCCN)NC(=O)[C@H](CC(C)C)NC(=O)[C@H](Cc1ccccc1)NC(=O)[C@H](CCC(N)=O)NC(=O)[C@H](CCCN=C(N)N)NC(=O)[C@@H](NC(=O)[C@@H](NC(=O)[C@H](CCC(=O)O)NC(=O)[C@H](CCCCN)NC(=O)CNC(=O)[C@H](C)N)[C@@H](C)O)[C@@H](C)CC)[C@@H](C)O)[C@@H](C)CC)C(=O)N[C@@H](Cc1c[nH]c2ccccc12)C(=O)N[C@@H](Cc1c[nH]c2ccccc12)C(=O)O` [AGKETIRQFLKKTIQEKGKRAKIWW], the MIC came out at 2 µM (≈ 6.09 µg/mL) in the assay with Escherichia coli BL21, 32 µM (≈ 97.4 µg/mL) in assay [1] and 0.125 µM (≈ 0.381 µg/mL) in [2].
The matching figures for `CC[C@H](C)[C@H](NC(=O)[C@H](Cc1ccccc1)NC(=O)[C@H](C)NC(=O)[C@H](CCCCN)NC(=O)[C@H](CCCCN)NC(=O)CNC(=O)[C@H](CCCN=C(N)N)NC(=O)[C@H](CCCCN)NC(=O)[C@H](CCCN=C(N)N)NC(=O)[C@H](CC(C)C)NC(=O)[C@H](CCC(=O)O)NC(=O)[C@H](CCC(=O)O)NC(=O)[C@H](CC(C)C)NC(=O)[C@H](CC(C)C)NC(=O)[C@H](Cc1ccc(O)cc1)NC(=O)[C@H](CCCCN)NC(=O)[C@@H](NC(=O)[C@H](CC(C)C)NC(=O)[C@H](C)NC(=O)[C@H](CCC(N)=O)NC(=O)[C@H](CCCN=C(N)N)NC(=O)CNC(=O)[C@H](C)N)[C@@H](C)O)C(=O)N[C@@H](Cc1c[nH]c2ccccc12)C(=O)N[C@@H](Cc1c[nH]c2ccccc12)C(=O)O` [AGRQALTKYLLEELRKRGKKAFIWW]: 4 µM (≈ 12.3 µg/mL), more than 128 µM and 2 µM (≈ 6.13 µg/mL).
For the compound `CC[C@H](C)[C@H](NC(=O)[C@H](Cc1c[nH]c2ccccc12)NC(=O)[C@H](CCC(N)=O)NC(=O)[C@H](CCCN=C(N)N)NC(=O)CNC(=O)[C@H](C)N)C(=O)N[C@@H](CCCCN)C(=O)N[C@@H](C)C(=O)N[C@@H](Cc1ccc(O)cc1)C(=O)N[C@@H](CC(C)C)C(=O)N[C@@H](CCCN=C(N)N)C(=O)N[C@@H](CCCN=C(N)N)C(=O)N[C@@H](CCC(=O)O)C(=O)N[C@H](C(=O)N[C@@H](CCCN=C(N)N)C(=O)N[C@@H](CCCCN)C(=O)N[C@@H](CCCN=C(N)N)C(=O)NCC(=O)N[C@@H](CCCN=C(N)N)C(=O)N[C@@H](CCCCN)C(=O)N[C@@H](C)C(=O)N[C@H](C(=O)N[C@H](C(=O)N[C@@H](C)C(=O)N[C@@H](Cc1c[nH]c2ccccc12)C(=O)O)[C@@H](C)CC)C(C)C)[C@@H](C)CC` [AGRQWIKAYLRREIRKRGRKAVIAW], the MIC was found to be 2 µM (≈ 6.17 µg/mL) against Escherichia coli BL21, 16 µM (≈ 49.3 µg/mL) in [1] and 2 µM (≈ 6.17 µg/mL) in assay [2].
For the compound `CC[C@H](C)[C@H](NC(=O)[C@@H]1CCCN1C(=O)[C@H](Cc1ccccc1)NC(=O)[C@@H](N)Cc1ccccc1)C(=O)N[C@H](C(=O)NCC(=O)N[C@@H](CCCCN)C(=O)N[C@@H](CC(C)C)C(=O)N[C@@H](CC(C)C)C(=O)N[C@@H](CO)C(=O)NCC(=O)N[C@@H](CC(C)C)C(=O)N[C@@H](CO)C(=O)NCC(=O)N[C@@H](CC(C)C)C(=O)N[C@@H](CC(C)C)C(N)=O)C(C)C` [FFPIVGKLLSGLSGLL], the MIC was 3.01 µM (≈ 5 µg/mL) in the assay with Shigella dysenteriae; 1.51 µM (≈ 2.5 µg/mL) in assay [3]; 1.51 µM (≈ 2.5 µg/mL) in assay [4]; 3.01 µM (≈ 5 µg/mL) against Pseudomonas aeruginosa; 18.1 µM (≈ 30 µg/mL) against Bacillus cereus; 18.1 µM (≈ 30 µg/mL) in assay [5]. Also, the MIC turned out to be 3.01 µM (≈ 5 µg/mL) in the assay on Bacillus pumilus and 1.51 µM (≈ 2.5 µg/mL) in [6].
Consider `CC[C@H](C)[C@H](NC(=O)[C@@H]1CCCN1C(=O)[C@H](CC(C)C)NC(=O)[C@@H](N)Cc1ccccc1)C(=O)N[C@H](C(=O)NCC(=O)N[C@@H](CCCCN)C(=O)N[C@@H](CC(C)C)C(=O)N[C@@H](CC(C)C)C(=O)N[C@@H](CO)C(=O)NCC(=O)N[C@@H](CC(C)C)C(=O)N[C@@H](CC(C)C)C(N)=O)C(C)C` [FLPIVGKLLSGLL], for which the MIC was not below 110 µM in assay [7], not below 49.6 µM in [8], not below 128 µM in [9] and 8 µM (≈ 11 µg/mL) in assay [10].
Compound `CC(C)C[C@H](NC(=O)[C@H](CCCCN)NC(=O)[C@H](CCC(N)=O)NC(=O)[C@H](CC(N)=O)NC(=O)[C@H](CC(C)C)NC(=O)[C@H](CC(=O)O)NC(=O)[C@H](CCC(=O)O)NC(=O)[C@@H]1CCCN1C(=O)[C@@H](NC(=O)[C@H](C)NC(=O)CN)[C@@H](C)O)C(=O)N[C@@H](CO)C(N)=O` [GATPEDLNQKLS] displayed a minimum inhibitory concentration (MIC) in [11] not below 196 µM.
`CC[C@H](C)[C@H](NC(=O)[C@H](CCCCN)NC(=O)[C@H](CS)NC(=O)[C@H](C)NC(=O)[C@@H](NC(=O)[C@H](CC(C)C)NC(=O)[C@H](CC(N)=O)NC(=O)[C@@H](NC(=O)CNC(=O)[C@H](CC(C)C)NC(=O)[C@H](CCCNC(=N)N)NC(=O)[C@H](C)NC(=O)[C@H](CC(C)C)NC(=O)[C@H](CC(=O)O)NC(=O)[C@H](CCCCN)NC(=O)CNC(=O)[C@H](CC(C)C)NC(=O)CNC(=O)[C@H](CCCCN)NC(=O)[C@H](CO)NC(=O)[C@H](C)NC(=O)[C@H](Cc1ccccc1)NC(=O)[C@H](CCCCN)NC(=O)[C@H](C)NC(=O)[C@@H](NC(=O)CNC(=O)[C@H](CCCNC(=N)N)NC(=O)[C@H](Cc1ccccc1)NC(=O)[C@@H](NC(=O)[C@H](CO)NC(=O)[C@H](CO)NC(=O)[C@H](Cc1ccccc1)NC(=O)CN)[C@@H](C)CC)C(C)C)C(C)C)C(C)C)C(=O)N[C@@H](CO)C(=O)N[C@@H](CCCCN)C(=O)N[C@@H](CCC(N)=O)C(=O)N[C@@H](CS)C(=O)O` [GFSSIFRGVAKFASKGLGKDLARLGVNLVACKISKQC]: the minimum inhibitory concentration (MIC) is ≥ 50 µM and 25 µM in assay [8]; 10 µM (≈ 38.7 µg/mL) in assay [6].
Regarding `CC[C@H](C)[C@H](NC(=O)[C@H](CCCCN)NC(=O)[C@H](CCCCN)NC(=O)[C@H](C)NC(=O)[C@H](CC(C)C)NC(=O)[C@H](C)NC(=O)[C@H](C)NC(=O)[C@H](CC(C)C)NC(=O)[C@H](C)NC(=O)[C@H](CCCCN)NC(=O)[C@H](CC(C)C)NC(=O)[C@H](CC(N)=O)NC(=O)[C@@H](NC(=O)[C@H](CCCCN)NC(=O)CNC(=O)[C@H](CC(C)C)NC(=O)[C@H](CC(C)C)NC(=O)[C@H](Cc1ccc(O)cc1)NC(=O)CNC(=O)[C@H](C)NC(=O)[C@H](CO)NC(=O)[C@H](CC(N)=O)NC(=O)[C@H](CC(C)C)NC(=O)[C@@H](NC(=O)[C@H](Cc1c[nH]c2ccccc12)NC(=O)CN)[C@@H](C)O)[C@@H](C)CC)C(=O)N[C@@H](CC(C)C)C(=O)O` [GWTLNSAGYLLGKINLKALAALAKKIL], the MIC is not below 43 µM in [12]; 5 µM (≈ 14.2 µg/mL) in [13]; not below 86 µM in assay [14]; not below 43 µM in assay [15]; 3.1 µM (≈ 8.81 µg/mL) in assay [16]; 3.1 µM (≈ 8.81 µg/mL) in assay [17]. In [18], this compound had an MIC of 3.1 µM (≈ 8.81 µg/mL).
Consider `CC[C@H](C)[C@H](NC(=O)[C@H](C)NC(=O)[C@@H](NC(=O)[C@H](CCCCN)NC(=O)[C@H](CCCCN)NC(=O)[C@H](Cc1cnc[nH]1)NC(=O)[C@@H](NC(=O)[C@@H](N)CCCN=C(N)N)C(C)C)[C@@H](C)CC)C(=O)N[C@@H](CO)C(=O)N[C@H](C(=O)O)C(C)C` [RVHKKIAISV], for which the MIC in assay [11] is not below 174 µM.
Take `CC[C@H](C)[C@H](NC(=O)[C@H](CCCN=C(N)N)NC(=O)[C@H](CCCN=C(N)N)NC(=O)[C@@H]1CCCN1C(=O)[C@H](CC(C)C)NC(=O)[C@H](CCCN=C(N)N)NC(=O)[C@@H]1CCCN1C(=O)[C@H](CCCN=C(N)N)NC(=O)[C@@H]1CCCN1C(=O)[C@H](CC(C)C)NC(=O)[C@H](Cc1ccc(O)cc1)NC(=O)[C@@H]1CCCN1C(=O)[C@@H]1CCCN1C(=O)[C@H](CCCCN)NC(=O)[C@H](CC(=O)O)NC(=O)[C@@H](N)C(C)C)C(=O)N[C@@H](Cc1ccc(O)cc1)C(=O)N[C@@H](CC(N)=O)C(=O)N[C@@H](CCCN=C(N)N)C(=O)NCC(=O)O` [VDKPPYLPRPRLPRRIYNRG]: the MIC in assay [11] was found to be 0.11 µM (≈ 0.27 µg/mL).
